ChEMBL document CHEMBL5465560, “Selectivity Literature for EUbOPEN Chemogenomic Library” (2024)

Columns and labels:
[1] = molecular target: Cyclin-dependent kinase 9 (Homo sapiens, UniProt P50750); assay: Selectivity interaction (Z-Lyte kinase biochemical assay, conc. ATP = Km(app), Thermo Fisher Scientific) EUB0001558a CDK9
[2] = molecular target: Mast/stem cell growth factor receptor Kit (Homo sapiens, UniProt P10721); assay: Selectivity interaction (KinomeScan (DiscoverX)) EUB0000229b KIT; settings: at 10 µM
Chain of Mast/stem cell growth factor receptor Kit (P10721 whole entry): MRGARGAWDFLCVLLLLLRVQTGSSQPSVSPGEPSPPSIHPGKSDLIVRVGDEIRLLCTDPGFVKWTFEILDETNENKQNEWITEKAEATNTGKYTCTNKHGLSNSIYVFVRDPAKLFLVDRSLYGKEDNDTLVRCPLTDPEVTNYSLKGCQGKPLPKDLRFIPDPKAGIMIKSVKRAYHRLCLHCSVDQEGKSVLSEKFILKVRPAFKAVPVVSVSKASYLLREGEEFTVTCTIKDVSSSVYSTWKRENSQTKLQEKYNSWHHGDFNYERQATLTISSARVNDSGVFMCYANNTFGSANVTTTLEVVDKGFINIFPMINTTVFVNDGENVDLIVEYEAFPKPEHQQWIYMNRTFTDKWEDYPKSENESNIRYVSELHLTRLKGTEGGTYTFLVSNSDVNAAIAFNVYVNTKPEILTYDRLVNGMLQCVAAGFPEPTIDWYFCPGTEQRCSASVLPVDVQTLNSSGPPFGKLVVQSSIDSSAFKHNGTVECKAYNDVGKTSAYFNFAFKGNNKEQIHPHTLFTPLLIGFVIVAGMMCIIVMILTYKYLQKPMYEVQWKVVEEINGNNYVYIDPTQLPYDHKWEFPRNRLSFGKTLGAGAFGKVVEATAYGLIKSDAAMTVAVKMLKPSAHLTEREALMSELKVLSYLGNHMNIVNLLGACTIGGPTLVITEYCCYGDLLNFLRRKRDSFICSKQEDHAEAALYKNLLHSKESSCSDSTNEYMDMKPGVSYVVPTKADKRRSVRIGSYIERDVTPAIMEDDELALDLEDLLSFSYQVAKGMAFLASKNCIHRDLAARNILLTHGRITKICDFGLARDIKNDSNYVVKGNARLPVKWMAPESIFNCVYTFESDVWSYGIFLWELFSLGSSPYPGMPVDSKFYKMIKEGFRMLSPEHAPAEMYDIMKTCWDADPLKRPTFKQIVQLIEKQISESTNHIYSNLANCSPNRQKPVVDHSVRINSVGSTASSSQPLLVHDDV

[3] = molecular target: T1, Homeodomain-interacting protein kinase 4 (Homo sapiens) (UniProt Q8NE63); assay: Selectivity interaction (ProQinase) EUB0000171b HIPK4
T1 sequence (whole entry): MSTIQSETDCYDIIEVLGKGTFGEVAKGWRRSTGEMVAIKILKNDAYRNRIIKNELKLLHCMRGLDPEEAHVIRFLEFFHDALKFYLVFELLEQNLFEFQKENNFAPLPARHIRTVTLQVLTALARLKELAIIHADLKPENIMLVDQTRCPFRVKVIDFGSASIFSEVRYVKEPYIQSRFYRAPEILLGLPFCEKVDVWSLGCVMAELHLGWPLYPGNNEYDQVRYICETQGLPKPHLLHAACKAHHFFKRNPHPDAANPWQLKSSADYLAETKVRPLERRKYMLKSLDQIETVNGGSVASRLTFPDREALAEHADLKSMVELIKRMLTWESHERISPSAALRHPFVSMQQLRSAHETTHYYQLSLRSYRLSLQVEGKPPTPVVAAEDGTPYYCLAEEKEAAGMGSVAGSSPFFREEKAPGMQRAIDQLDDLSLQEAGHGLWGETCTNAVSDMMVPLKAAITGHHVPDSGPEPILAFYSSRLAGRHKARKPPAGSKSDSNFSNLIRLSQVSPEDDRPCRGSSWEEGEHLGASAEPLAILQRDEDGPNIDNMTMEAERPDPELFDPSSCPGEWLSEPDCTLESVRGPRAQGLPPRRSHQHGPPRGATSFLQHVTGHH

[4] = molecular target: Vascular endothelial growth factor receptor 1 (Homo sapiens) (UniProt P17948); assay: Selectivity interaction (Kinase panel (Invitrogen)) EUB0000639a FLT1; settings: at 200 nM
Chain of Vascular endothelial growth factor receptor 1 (Homo sapiens) (P17948 whole entry): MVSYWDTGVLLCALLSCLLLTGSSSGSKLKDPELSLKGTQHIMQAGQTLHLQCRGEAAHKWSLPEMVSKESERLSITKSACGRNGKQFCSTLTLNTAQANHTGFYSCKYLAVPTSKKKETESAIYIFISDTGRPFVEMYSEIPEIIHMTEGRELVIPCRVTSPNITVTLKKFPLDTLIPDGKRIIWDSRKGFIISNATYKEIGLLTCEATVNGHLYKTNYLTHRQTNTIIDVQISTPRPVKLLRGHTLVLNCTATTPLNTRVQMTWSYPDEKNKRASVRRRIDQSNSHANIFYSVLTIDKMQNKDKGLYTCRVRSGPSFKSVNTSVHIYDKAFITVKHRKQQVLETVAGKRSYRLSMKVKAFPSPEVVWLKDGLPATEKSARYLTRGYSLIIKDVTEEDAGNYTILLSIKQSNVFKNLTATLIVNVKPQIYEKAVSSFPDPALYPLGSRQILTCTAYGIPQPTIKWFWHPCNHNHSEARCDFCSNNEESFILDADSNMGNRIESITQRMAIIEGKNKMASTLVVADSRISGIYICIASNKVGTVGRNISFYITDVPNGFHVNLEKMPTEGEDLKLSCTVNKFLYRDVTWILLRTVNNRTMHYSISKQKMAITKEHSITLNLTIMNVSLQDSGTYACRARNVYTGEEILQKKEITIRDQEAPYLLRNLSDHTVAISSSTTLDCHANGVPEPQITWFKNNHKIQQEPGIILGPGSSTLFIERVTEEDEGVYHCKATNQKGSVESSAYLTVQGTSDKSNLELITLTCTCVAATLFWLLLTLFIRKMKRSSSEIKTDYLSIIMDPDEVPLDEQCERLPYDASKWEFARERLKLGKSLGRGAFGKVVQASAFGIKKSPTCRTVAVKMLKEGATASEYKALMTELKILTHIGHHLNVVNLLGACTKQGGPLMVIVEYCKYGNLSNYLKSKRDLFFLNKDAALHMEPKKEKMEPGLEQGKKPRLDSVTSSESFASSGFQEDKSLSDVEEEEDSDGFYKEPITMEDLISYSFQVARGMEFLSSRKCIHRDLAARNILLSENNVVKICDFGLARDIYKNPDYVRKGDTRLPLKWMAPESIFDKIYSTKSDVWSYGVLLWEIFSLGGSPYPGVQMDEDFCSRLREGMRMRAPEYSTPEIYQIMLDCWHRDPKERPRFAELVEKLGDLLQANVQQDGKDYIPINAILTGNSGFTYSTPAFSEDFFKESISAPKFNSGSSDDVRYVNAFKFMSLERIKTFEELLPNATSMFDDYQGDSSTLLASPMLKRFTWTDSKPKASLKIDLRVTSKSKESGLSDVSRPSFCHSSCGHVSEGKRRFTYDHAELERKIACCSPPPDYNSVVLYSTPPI

[5] = molecular target: Macrophage colony-stimulating factor 1 receptor (Homo sapiens) (UniProt P07333); assay: Selectivity interaction (KinomeScan (DiscoverX)) EUB0000607a CSF1R; settings: at 10 µM
Chain of Macrophage colony-stimulating factor 1 receptor (Homo sapiens) (P07333 whole entry): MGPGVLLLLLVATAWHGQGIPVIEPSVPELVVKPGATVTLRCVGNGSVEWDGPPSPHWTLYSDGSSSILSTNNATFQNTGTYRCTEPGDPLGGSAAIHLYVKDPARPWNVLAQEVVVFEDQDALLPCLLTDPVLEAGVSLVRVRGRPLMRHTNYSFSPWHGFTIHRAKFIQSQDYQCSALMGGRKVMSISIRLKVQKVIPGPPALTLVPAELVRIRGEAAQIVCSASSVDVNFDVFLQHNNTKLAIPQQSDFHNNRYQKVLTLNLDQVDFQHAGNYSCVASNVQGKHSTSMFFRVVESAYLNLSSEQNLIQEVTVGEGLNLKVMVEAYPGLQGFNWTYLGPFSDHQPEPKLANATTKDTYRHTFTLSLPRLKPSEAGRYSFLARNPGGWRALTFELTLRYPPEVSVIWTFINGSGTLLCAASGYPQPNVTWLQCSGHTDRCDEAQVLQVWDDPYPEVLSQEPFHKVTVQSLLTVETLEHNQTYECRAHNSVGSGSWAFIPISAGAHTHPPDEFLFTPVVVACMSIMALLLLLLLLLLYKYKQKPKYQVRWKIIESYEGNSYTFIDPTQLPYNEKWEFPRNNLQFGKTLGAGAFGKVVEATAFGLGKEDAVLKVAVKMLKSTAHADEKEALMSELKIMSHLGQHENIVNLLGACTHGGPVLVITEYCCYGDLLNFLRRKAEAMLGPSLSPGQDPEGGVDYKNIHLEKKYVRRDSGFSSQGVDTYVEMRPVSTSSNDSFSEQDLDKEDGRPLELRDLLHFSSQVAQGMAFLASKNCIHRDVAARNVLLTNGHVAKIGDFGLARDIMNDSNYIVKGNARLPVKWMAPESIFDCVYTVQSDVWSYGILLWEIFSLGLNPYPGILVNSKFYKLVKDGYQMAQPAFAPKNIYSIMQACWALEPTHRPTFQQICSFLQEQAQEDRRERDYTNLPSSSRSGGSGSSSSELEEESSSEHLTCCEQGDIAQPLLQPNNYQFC

[6] = molecular target: TGF-beta receptor type-2 (Homo sapiens) (UniProt P37173); assay: Selectivity interaction (KinomeScan (DiscoverX)) EUB0000695a TGFBR2; settings: at 100 nM
Chain of TGF-beta receptor type-2 (Homo sapiens) (P37173 whole entry): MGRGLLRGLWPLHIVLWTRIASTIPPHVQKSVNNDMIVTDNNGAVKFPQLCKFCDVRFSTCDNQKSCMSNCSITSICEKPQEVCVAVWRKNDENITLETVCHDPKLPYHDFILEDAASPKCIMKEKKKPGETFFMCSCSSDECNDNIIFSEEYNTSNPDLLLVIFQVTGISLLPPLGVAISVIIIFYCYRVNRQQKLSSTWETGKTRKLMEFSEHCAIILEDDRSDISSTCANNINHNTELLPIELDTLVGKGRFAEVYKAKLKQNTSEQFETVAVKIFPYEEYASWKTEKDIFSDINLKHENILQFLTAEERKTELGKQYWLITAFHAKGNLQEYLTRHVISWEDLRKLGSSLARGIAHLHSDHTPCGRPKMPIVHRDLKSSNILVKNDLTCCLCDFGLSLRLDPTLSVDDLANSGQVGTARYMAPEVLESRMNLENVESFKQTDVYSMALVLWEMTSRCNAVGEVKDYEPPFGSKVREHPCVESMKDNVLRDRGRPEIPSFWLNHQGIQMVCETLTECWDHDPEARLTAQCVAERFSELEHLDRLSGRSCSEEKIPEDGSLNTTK

[7] = molecular target: T2, Cyclin-dependent kinase 11A (Homo sapiens) (UniProt Q9UQ88); assay: Selectivity interaction (KinomeScan (DiscoverX)) EUB0000045b CDK11A
T2 sequence (whole entry): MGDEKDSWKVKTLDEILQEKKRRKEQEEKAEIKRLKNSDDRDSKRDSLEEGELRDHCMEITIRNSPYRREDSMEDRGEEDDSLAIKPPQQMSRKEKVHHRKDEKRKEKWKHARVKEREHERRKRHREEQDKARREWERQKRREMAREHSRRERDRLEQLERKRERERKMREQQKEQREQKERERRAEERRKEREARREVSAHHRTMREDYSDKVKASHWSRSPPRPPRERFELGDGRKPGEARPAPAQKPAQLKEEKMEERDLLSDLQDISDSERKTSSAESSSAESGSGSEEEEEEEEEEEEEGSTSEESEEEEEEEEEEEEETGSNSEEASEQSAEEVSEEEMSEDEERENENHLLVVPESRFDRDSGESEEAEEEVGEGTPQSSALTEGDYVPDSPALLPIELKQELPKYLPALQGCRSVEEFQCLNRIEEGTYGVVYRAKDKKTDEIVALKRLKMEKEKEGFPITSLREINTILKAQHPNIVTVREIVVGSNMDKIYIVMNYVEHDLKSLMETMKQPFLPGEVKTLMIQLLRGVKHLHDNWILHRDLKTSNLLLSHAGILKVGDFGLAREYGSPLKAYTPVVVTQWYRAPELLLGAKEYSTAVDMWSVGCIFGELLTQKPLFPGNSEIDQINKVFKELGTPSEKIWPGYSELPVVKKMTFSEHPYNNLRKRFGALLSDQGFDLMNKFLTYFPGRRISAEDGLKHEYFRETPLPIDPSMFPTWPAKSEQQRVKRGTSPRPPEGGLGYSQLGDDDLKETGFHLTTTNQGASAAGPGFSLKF

Chain of Cyclin-dependent kinase 9 (P50750 whole entry): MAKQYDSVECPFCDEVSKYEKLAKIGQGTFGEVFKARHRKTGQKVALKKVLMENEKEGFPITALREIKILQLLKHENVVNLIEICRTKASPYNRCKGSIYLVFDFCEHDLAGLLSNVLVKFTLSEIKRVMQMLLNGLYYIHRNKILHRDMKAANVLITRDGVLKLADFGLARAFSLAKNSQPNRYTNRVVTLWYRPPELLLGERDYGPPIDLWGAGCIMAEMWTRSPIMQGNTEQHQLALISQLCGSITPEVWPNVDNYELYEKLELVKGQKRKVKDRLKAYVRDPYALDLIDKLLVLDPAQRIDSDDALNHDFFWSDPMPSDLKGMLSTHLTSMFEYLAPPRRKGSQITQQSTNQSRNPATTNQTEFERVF

## CC(C)(O)[C@H](F)CN1Cc2cc(NC(=O)c3cnn4cccnc34)c(N3CCOCC3)cc2C1=O
[1]
  IC50: 966 nM

## COc1cc(N(C)c2ccnc3ccc(C(F)(F)F)cc23)cc(OC)c1OC
[2]
  % binding: 99%

## C=CC(=O)Nc1cccc(C(=O)Nc2ccc(Nc3cc(-c4[nH]c(SC)nc4C)ccn3)cc2)c1
[3]; at 1 µM
  % of control: 76%
[3]; at 5 µM
  % of control: 37%

## CC[C@@H]1[C@H](F)C(=O)N[C@@H]1COc1nccc2cc(C(N)=O)c(OC)cc12 [ZIMLOVISERTIB]
[4]
  % of inhibition: 3.08%

## CNC(=O)Nc1ccc(-c2nc(N3CC4CCC(C3)O4)c3cnn(C4CCC5(CC4)OCCO5)c3n2)cc1
[5]
  % of control: 100%

## Cc1cc(F)c(C(=O)Nc2cccc(-c3nncn3C(C)C)n2)cc1-n1cnc(C2CC2)c1
[6]
  % of control: 99%

## C=CC(=O)Nc1cc(-n2c(=O)ccc3cnc4ccc(-c5ccc(NS(C)(=O)=O)cc5)cc4c32)ccc1C
[7]; at 1 µM
  % of control: 90%
[7]; at 10 µM
  % of control: 44%
